Results as given in PubChem BioAssay (NCI).
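All cell lines were grown in 96-well plates and treated with compound for 48 hours. Definition used: TGI = concentration required for complete inhibition of growth.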

How the values were obtained:
Assay in all cases: NCI tumour cell line growth inhibition, 48 h
[1] = system: NCI-H23 lung
[2] = system: OVCAR-3 ovarian
[3] = system: MOLT-4 leukemia
[4] = system: HOP-92 NSCLC
[5] = system: M14 melanoma
[6] = system: OVCAR-5 ovarian
[7] = system: MDA-MB-435
[8] = system: HCT-15 colon
[9] = system: RPMI-8226 leukemia
[10] = system: HOP-62 NSCLC
[11] = system: SNB-19 CNS
[12] = system: SK-MEL-28 melanoma
[13] = system: SF-268 CNS

Cc1ccc(C2SC(N)=Nc3c2c(C)nn3C(=O)c2ccncc2)cc1 (stereo not drawn)
TGI [1]: > 10 µM | TGI [2]: > 10 µM | TGI [3]: > 10 µM | TGI [4]: > 10 µM | TGI [5]: > 10 µM | TGI [6]: > 10 µM | TGI [7]: > 10 µM | TGI [8]: > 10 µM | TGI [9]: > 10 µM | TGI [10]: > 10 µM | TGI [11]: > 10 µM | TGI [12]: > 10 µM | TGI [13]: > 10 µM

COc1ccc(-c2nc3ccc(C)cc3o2)c(OC)c1
TGI [1]: 87.5 µM | TGI [2]: 46.9 µM | TGI [3]: 52.9 µM | TGI [4]: > 66.8 µM | TGI [5]: 35.7 µM | TGI [6]: 42 µM | TGI [7]: 52.9 µM | TGI [8]: 58.8 µM | TGI [9]: 49.1 µM | TGI [10]: > 56 µM | TGI [11]: 61.4 µM | TGI [12]: > 100 µM | TGI [13]: 77.4 µM

O=[N+]([O-])c1cc(Cl)ccc1S(=O)(=O)c1ccccc1
TGI [1]: > 100 µM | TGI [2]: > 100 µM | TGI [3]: > 100 µM | TGI [4]: > 100 µM | TGI [5]: > 100 µM | TGI [6]: > 100 µM | TGI [7]: > 100 µM | TGI [8]: > 100 µM | TGI [9]: > 100 µM | TGI [10]: > 100 µM | TGI [11]: > 100 µM | TGI [12]: > 100 µM | TGI [13]: > 100 µM

C=C1C(=O)C=C2C=C3C(=O)C(C)(C)C[C@]3(O)C12C (stereo partly drawn)
TGI [1]: 12.9 µM | TGI [2]: 4.49 µM | TGI [3]: 2.28 µM | TGI [4]: 3.24 µM | TGI [5]: 3.04 µM | TGI [6]: 21.4 µM | TGI [7]: 32.6 µM | TGI [8]: 11.7 µM | TGI [9]: 3.2 µM | TGI [10]: 53.3 µM | TGI [11]: 44.5 µM | TGI [12]: 6.76 µM | TGI [13]: 28.2 µM

CC1C(c2ccccc2O)c2cc3c(cc2OC1N1CCCC1)OCO3 (stereo not drawn)
TGI [1]: > 100 µM | TGI [2]: 56.6 µM | TGI [3]: 65 µM | TGI [4]: 69.3 µM | TGI [5]: 36.8 µM | TGI [6]: > 100 µM | TGI [7]: 81.9 µM | TGI [8]: > 100 µM | TGI [9]: 57.5 µM | TGI [10]: 49.8 µM | TGI [11]: > 100 µM | TGI [12]: 46.6 µM | TGI [13]: > 100 µM

COC(=O)c1ccccc1CC1Cc2cc3c(cc2C1)CCC3
TGI [1]: > 100 µM | TGI [2]: > 100 µM | TGI [3]: 38.8 µM | TGI [4]: 71.2 µM | TGI [5]: 93.4 µM | TGI [6]: > 100 µM | TGI [7]: 84.2 µM | TGI [8]: > 100 µM | TGI [9]: 40.1 µM | TGI [10]: > 100 µM | TGI [11]: > 100 µM | TGI [12]: > 100 µM | TGI [13]: > 100 µM

Cc1c(-c2ccccc2)n(C)c2cn[nH]c(=O)c12
TGI [1]: > 100 µM | TGI [2]: 47.7 µM | TGI [3]: > 100 µM | TGI [4]: > 100 µM | TGI [5]: > 100 µM | TGI [6]: > 100 µM | TGI [7]: > 100 µM | TGI [8]: > 100 µM | TGI [9]: > 100 µM | TGI [10]: 80.3 µM | TGI [11]: > 100 µM | TGI [12]: > 100 µM | TGI [13]: > 100 µM

O=S(=O)(Nc1ccccc1S(=O)(=O)c1ccccc1)c1ccccc1
TGI [1]: > 100 µM | TGI [2]: > 100 µM | TGI [3]: > 100 µM | TGI [4]: > 100 µM | TGI [5]: > 100 µM | TGI [6]: > 100 µM | TGI [7]: > 100 µM | TGI [8]: > 100 µM | TGI [9]: > 100 µM | TGI [10]: > 100 µM | TGI [11]: > 100 µM | TGI [12]: > 100 µM | TGI [13]: > 100 µM

CCCCc1ccc(Nc2nc(Cl)c3[nH]cnc3n2)cc1
TGI [1]: 33.9 µM | TGI [2]: 28.9 µM | TGI [3]: > 100 µM | TGI [4]: 26.3 µM | TGI [5]: 41.5 µM | TGI [6]: > 100 µM | TGI [7]: 32.1 µM | TGI [8]: 34.4 µM | TGI [9]: > 100 µM | TGI [10]: 27.8 µM | TGI [11]: 43.5 µM | TGI [13]: 59.9 µM

CNC(=O)N(CCC#N)CCN(CCN(C(=O)NC)c1ccccc1)C(=O)NC
TGI [1]: > 100 µM | TGI [2]: > 100 µM | TGI [3]: > 100 µM | TGI [4]: > 100 µM | TGI [5]: > 100 µM | TGI [6]: > 100 µM | TGI [7]: > 100 µM | TGI [8]: > 100 µM | TGI [9]: > 100 µM | TGI [10]: > 100 µM | TGI [11]: > 100 µM | TGI [12]: > 100 µM

COc1cc(Cn2c3c(c4cc(O)ccc42)C(=O)c2ccccc2C3=O)cc(OC)c1
TGI [1]: 32.2 µM | TGI [2]: 77.7 µM | TGI [3]: 90.9 µM | TGI [4]: 19.7 µM | TGI [5]: 67.5 µM | TGI [6]: 32.9 µM | TGI [7]: > 100 µM | TGI [8]: > 100 µM | TGI [9]: 3.73 µM | TGI [10]: 8.78 µM | TGI [11]: 25.4 µM | TGI [12]: 28.4 µM | TGI [13]: 15.5 µM

N#Cc1c(N2CCOCC2)ncn(-c2ccccc2)c1=O
TGI [1]: > 100 µM | TGI [2]: > 100 µM | TGI [3]: > 100 µM | TGI [4]: > 100 µM | TGI [5]: > 100 µM | TGI [6]: > 100 µM | TGI [7]: > 100 µM | TGI [8]: > 100 µM | TGI [9]: > 100 µM | TGI [10]: > 100 µM | TGI [11]: > 100 µM | TGI [12]: > 100 µM

CC(C)(C)OC(=O)C1/C(=C/CO)CN1C(=O)OC(C)(C)C (stereo not drawn)
TGI [1]: > 100 µM | TGI [2]: > 100 µM | TGI [3]: > 100 µM | TGI [4]: > 100 µM | TGI [5]: > 100 µM | TGI [6]: > 100 µM | TGI [7]: > 100 µM | TGI [8]: > 100 µM | TGI [9]: > 100 µM | TGI [10]: > 100 µM | TGI [11]: > 100 µM | TGI [12]: > 100 µM | TGI [13]: > 100 µM

Cc1cc2c3c(ccc4ncc(c43)CN2c2ccc(NS(C)(=O)=O)cc2)[nH]1
TGI [1]: > 100 µM | TGI [2]: 81.5 µM | TGI [3]: > 100 µM | TGI [4]: 92.2 µM | TGI [5]: > 100 µM | TGI [6]: > 100 µM | TGI [7]: > 100 µM | TGI [8]: > 100 µM | TGI [9]: 55.3 µM | TGI [10]: 46.1 µM | TGI [11]: 10.4 µM | TGI [12]: > 100 µM | TGI [13]: 51.5 µM

CCOC(=O)Cn1nc2ccc(Nc3nc4ccccc4nc3C(=O)OCC)cc2n1
TGI [1]: > 100 µM | TGI [2]: > 100 µM | TGI [3]: > 100 µM | TGI [4]: > 100 µM | TGI [5]: > 100 µM | TGI [6]: > 100 µM | TGI [7]: > 100 µM | TGI [8]: > 100 µM | TGI [9]: > 100 µM | TGI [10]: > 100 µM | TGI [11]: > 100 µM | TGI [12]: > 100 µM | TGI [13]: > 100 µM

CC(C)C1OCC(CO)CO1 (stereo not drawn)
TGI [1]: > 100 µM | TGI [2]: > 100 µM | TGI [3]: > 100 µM | TGI [4]: > 100 µM | TGI [5]: > 100 µM | TGI [6]: > 100 µM | TGI [7]: > 100 µM | TGI [8]: > 100 µM | TGI [9]: > 100 µM | TGI [10]: > 100 µM | TGI [11]: > 100 µM | TGI [12]: > 100 µM | TGI [13]: > 100 µM

CN1N=C(c2ccncc2)OC1c1ccc(Cl)c(Cl)c1 (stereo not drawn)
TGI [1]: > 100 µM | TGI [2]: > 100 µM | TGI [3]: > 100 µM | TGI [4]: > 100 µM | TGI [5]: > 100 µM | TGI [6]: > 100 µM | TGI [7]: > 100 µM | TGI [8]: > 100 µM | TGI [9]: > 100 µM | TGI [10]: > 100 µM | TGI [11]: > 100 µM | TGI [12]: > 100 µM | TGI [13]: > 100 µM
